Laboratory results taken from US20130331326A1, “METHOD OF INDUCING HEMATOPOIETIC RECONSTRUCTION” (DUKE UNIVERSITY, priority 2011, published 2013).
Entries after “also recorded” stand apart in the source; their conditions may differ.

Legend:
AKT-S473 = assay: Phosphorylation of AKT-S473 in irradiated BM KSL cells; format: cell-based, mouse; conditions: EGF treatment of irradiated BM KSL cells in culture, within 15 minutes, vs TSF alone
Experimental: Cell apoptosis and necrosis were analyzed by flow cytometry according to manufacturer's protocols with Annexin V-FITC and 7-AAD staining (BD, San Jose, Calif.). […] Cells were fixed and permeabilized with Fix Buffer I and Perm Buffer III (BD), and then stained with mouse anti-phospho-AKT-S473 PE (BD) or isotype control. Cell cycle analysis was performed by flow cytometric analysis modified from previous reports (Jordan et al, Exp. Hematol. 24:1347-1355 (1996), Chute et al, Hum. Gene Ther. 11:2515-2528 (2000), Sungartz et al, Blood 119:1308-1309 (2012)). Briefly, cells were fixed and permeabilized with 0.25% Saponin (Calbiochem, La Jolla, Calif.), 2.5% paraformaldehyde, 2% FBS in 1×PBS, and then labeled with Ki67-FITC and 7-AAD (BD). BM lin^− cells from VavCre;EGFR^+/+ or VavCre;EGER^fl/fl were cultured with TSF or TSF+10 μM erlotinib, or TSF following 300 cGy for 72 hours, and then collected for total cell counts and CFCs analysis.

BM KSL cells = assay: Culture of 300 cGy-irradiated BM KSL cells with BM ECs or TSF cytokines; CFC and CFU-S12 recovery; format: cell-based, mouse
Experimental: BM cells were collected into PBS (Cellgro, Manassas, Va.) with 10% fetal bovine serum (Hyclone, Logan, Utah) and 1% penicillin/streptomycin (GIBCO, Grand Island, N.Y.). Viable BM cells were quantified using Trypan Blue Stain (Lonza, Basel, Switzerland) to exclude apoptotic and dead cells. Cells were then incubated with anti-c-kit, anti-Sca-1, anti-lineage cocktail, anti-CD41, anti-CD48, and anti-CD150 antibodies (Biolegend and eBiosciences, San Diego, Calif.; BD, San Jose, Calif.) to measure ckit^+sca-1^+lin^− (KSL) progenitor cells or CD150′CD41^−CD48^−KSL (SLAM/KSL) as previously described (Kiel et al, Cell 121:1109-1121 (2005)). Colony forming cells (CFCs) and CFU-S12 assays were also performed to measure functional hematopoietic stem/progenitor cell content. For CFCs, either whole BM or cultured lineage−cells, or KSL cells were plated onto methylcellulose (StemCell Technologies, Vancouver, BC, Canada), and colonies were scored on day 14. 1×10^5 BM or 2×10^5 cells were collected from donor mice and injected via tail vein into recipient C57B16 mice that had been given 950 cGy TBI. At day +12 post-injection, spleens from recipient mice were harvested and stained with Bouin's fixative solution (Ricca Chemical Company, Arlington, Tex.), and colonies were counted as previously described (Till and MeRadiat. Res. 14:213-222 (1961)). Complete blood counts were performed on a HemaVet 950 (Drew Scientific, Dallas, Tex.). […]

C57B16 mice = assay: Survival of C57B16 mice after 700 cGy TBI; format: in vivo, mouse; conditions: 0.5 ug/G EGF daily x 7 days from +2 hours, saline controls 57%
BM 34-KSL cells = assay: Competitive transplantation of the progeny of cultured BM 34-KSL cells; format: cell-based, mouse; conditions: progeny of 300 cGy-irradiated, EGF-treated BM 34-KSL cells; 8 weeks post-transplant
[1] = 20 ng/mL EGF added to non-contact FL/+ EC cultures of 300 cGy-irradiated BM KSL cells, vs FL/+ ECs alone
[2] = EGF added to irradiated BM KSL cells cultured with cytokines (TSF), day 7, vs cytokines alone

EGF: epidermal growth factor; recombinant EGF (R&D Systems)
increase in Akt phosphorylation (AKT-S473): 50%
increase in CFCs recovered at day 7 (BM KSL cells; [1]): 2.2 fold
increase in CFU-S12 recovered at day 7 (BM KSL cells; [1]): 2.6 fold
recovery of CFCs in culture (BM KSL cells; 300 cGy BM KSL cells from Tie2Cre;Bak1-/-;BaxFl/- mice, TSF + 20 ng/ml EGF, 72 hours, vs cytokines alone): increased CFCs; also recorded: increase in recovery of CFCs
increase in CFCs (BM KSL cells; [2]): 3 fold
increase in CFU-S12 (BM KSL cells; [2]): 4 fold
increase in BM CFC recovery (BM KSL cells; EGF treatment, 72 hours following radiation exposure, vs TSF alone): 3 fold
regeneration of BM stem and progenitor cells (CFC, CFUS12) (BM KSL cells; Example 1, 300 cGy KSL cells, 7 days with BaxFl+ endothelial cells with and without EGF): induced regeneration of BM stem and progenitor cells
mice alive and well through day +30 (C57B16 mice): 93%
donor hematopoietic cell repopulation, higher vs cytokine cultures alone (BM 34-KSL cells): 3 fold
